Test results reported in PubChem BioAssay (NCI).
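These data come from cells grown in 96-well plates and exposed to compound for 48 hours at five concentrations. TGI is the concentration that stops growth completely.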

Legend:
Test in all cases: NCI anticancer screen, dose series, 48 h
SN12C renal = test system: SN12C renal
HL-60(TB) leukemia = test system: HL-60(TB) leukemia
SR leukemia = test system: SR leukemia
OVCAR-8 ovarian = test system: OVCAR-8 ovarian
M14 melanoma = test system: M14 melanoma
OVCAR-5 ovarian = test system: OVCAR-5 ovarian
HOP-18 NSCLC = test system: HOP-18 NSCLC
LXFL 529 NSCLC = test system: LXFL 529 NSCLC
RPMI-8226 leukemia = test system: RPMI-8226 leukemia
HCC-2998 colon = test system: HCC-2998 colon
HOP-92 NSCLC = test system: HOP-92 NSCLC
DLD-1 colon = test system: DLD-1 colon
U251 CNS = test system: U251 CNS
NCI-H460 lung = test system: NCI-H460 lung
TK-10 renal = test system: TK-10 renal
RXF 393 renal = test system: RXF 393 renal
ACHN renal = test system: ACHN renal
SK-MEL-2 melanoma = test system: SK-MEL-2 melanoma
KM12 colon = test system: KM12 colon
K-562 leukemia = test system: K-562 leukemia
SK-MEL-5 melanoma = test system: SK-MEL-5 melanoma
SNB-75 CNS = test system: SNB-75 CNS
M19-MEL melanoma = test system: M19-MEL melanoma
NCI-H522 lung = test system: NCI-H522 lung
UACC-62 melanoma = test system: UACC-62 melanoma
OVCAR-4 ovarian = test system: OVCAR-4 ovarian
SNB-19 CNS = test system: SNB-19 CNS
CAKI-1 renal = test system: CAKI-1 renal
IGROV1 ovarian = test system: IGROV1 ovarian
UO-31 renal = test system: UO-31 renal
CCRF-CEM leukemia = test system: CCRF-CEM leukemia
KM20L2 colon = test system: KM20L2 colon
LOX IMVI melanoma = test system: LOX IMVI melanoma
NCI-H226 lung = test system: NCI-H226 lung
HCT-15 colon = test system: HCT-15 colon
RXF-631 renal = test system: RXF-631 renal
XF 498 CNS = test system: XF 498 CNS
SF-295 CNS = test system: SF-295 CNS
SW-620 colon = test system: SW-620 colon
A549 NSCLC = test system: A549 NSCLC
NCI-H23 lung = test system: NCI-H23 lung
DMS 273 small cell lung = test system: DMS 273 small cell lung
UACC-257 melanoma = test system: UACC-257 melanoma
EKVX NSCLC = test system: EKVX NSCLC
HT29 colon = test system: HT29 colon
HOP-62 NSCLC = test system: HOP-62 NSCLC
MOLT-4 leukemia = test system: MOLT-4 leukemia
OVCAR-3 ovarian = test system: OVCAR-3 ovarian
COLO 205 colon = test system: COLO 205 colon
SNB-78 CNS = test system: SNB-78 CNS
SK-OV-3 ovarian = test system: SK-OV-3 ovarian
SF-539 CNS = test system: SF-539 CNS
SK-MEL-28 melanoma = test system: SK-MEL-28 melanoma
786-0 renal = test system: 786-0 renal
HCT-116 colon = test system: HCT-116 colon
SF-268 CNS = test system: SF-268 CNS
A498 renal = test system: A498 renal
MALME-3M melanoma = test system: MALME-3M melanoma

Question: What does the source list for `Cc1ccc(S(=O)(=O)O/N=C2\CCC\C2=C/c2ccccc2)cc1`?
Answer: TGI (SN12C renal): > 100 µM; TGI (HL-60(TB) leukemia): > 100 µM; TGI (SR leukemia): 43.4 µM; TGI (OVCAR-8 ovarian): > 100 µM; TGI (M14 melanoma): 47.4 µM; TGI (OVCAR-5 ovarian): 42.6 µM; TGI (HOP-18 NSCLC): 34.6 µM; TGI (LXFL 529 NSCLC): 83.9 µM; TGI (RPMI-8226 leukemia): 37.3 µM; TGI (HCC-2998 colon): 31.6 µM; TGI (HOP-92 NSCLC): 34.5 µM; TGI (DLD-1 colon): 46.3 µM; TGI (U251 CNS): 88.6 µM; TGI (NCI-H460 lung): 47.9 µM; TGI (TK-10 renal): 30.4 µM; TGI (RXF 393 renal): 44 µM; TGI (ACHN renal): 23.3 µM; TGI (SK-MEL-2 melanoma): 30.8 µM; TGI (KM12 colon): 32.6 µM; TGI (K-562 leukemia): > 100 µM; TGI (SK-MEL-5 melanoma): 28.4 µM; TGI (SNB-75 CNS): 44.1 µM; TGI (M19-MEL melanoma): 44.3 µM; TGI (NCI-H522 lung): 37.8 µM; TGI (UACC-62 melanoma): 27.2 µM; TGI (OVCAR-4 ovarian): 58.6 µM; TGI (SNB-19 CNS): > 100 µM; TGI (CAKI-1 renal): 36.8 µM; TGI (IGROV1 ovarian): > 100 µM; TGI (UO-31 renal): 42.5 µM; TGI (CCRF-CEM leukemia): > 100 µM; TGI (KM20L2 colon): 49 µM; TGI (LOX IMVI melanoma): > 100 µM; TGI (NCI-H226 lung): 37.7 µM; TGI (HCT-15 colon): 73.8 µM; TGI (RXF-631 renal): 36.5 µM; TGI (XF 498 CNS): 33.3 µM; TGI (SF-295 CNS): 50.1 µM; TGI (SW-620 colon): > 100 µM; TGI (A549 NSCLC): > 100 µM; TGI (NCI-H23 lung): 38.9 µM; TGI (DMS 273 small cell lung): > 100 µM; TGI (UACC-257 melanoma): 31.4 µM; TGI (EKVX NSCLC): 35.3 µM; TGI (HT29 colon): 60.1 µM; TGI (HOP-62 NSCLC): > 100 µM; TGI (MOLT-4 leukemia): 29.2 µM; TGI (OVCAR-3 ovarian): 32.8 µM; TGI (COLO 205 colon): 29.8 µM; TGI (SNB-78 CNS): 13 µM; TGI (SK-OV-3 ovarian): > 100 µM; TGI (SF-539 CNS): 43.5 µM; TGI (SK-MEL-28 melanoma): 24.1 µM; TGI (786-0 renal): 67.9 µM; TGI (HCT-116 colon): 25.3 µM; TGI (SF-268 CNS): 27.7 µM

Question: What does the source list for `O=C1c2ccccc2C(=O)N1C/C=N/NS(=O)(=O)c1ccc2ccccc2c1`?
Answer: TGI (SN12C renal): > 100 µM; TGI (HL-60(TB) leukemia): > 100 µM; TGI (SR leukemia): > 100 µM; TGI (OVCAR-8 ovarian): > 100 µM; TGI (M14 melanoma): > 100 µM; TGI (OVCAR-5 ovarian): > 100 µM; TGI (HOP-18 NSCLC): > 100 µM; TGI (LXFL 529 NSCLC): > 100 µM; TGI (RPMI-8226 leukemia): > 100 µM; TGI (HCC-2998 colon): > 100 µM; TGI (DLD-1 colon): > 100 µM; TGI (U251 CNS): > 100 µM; TGI (NCI-H460 lung): > 100 µM; TGI (TK-10 renal): > 100 µM; TGI (ACHN renal): > 100 µM; TGI (SK-MEL-2 melanoma): > 100 µM; TGI (KM12 colon): > 100 µM; TGI (K-562 leukemia): > 100 µM; TGI (SK-MEL-5 melanoma): > 100 µM; TGI (SNB-75 CNS): > 100 µM; TGI (M19-MEL melanoma): > 100 µM; TGI (NCI-H522 lung): > 100 µM; TGI (UACC-62 melanoma): > 100 µM; TGI (OVCAR-4 ovarian): > 100 µM; TGI (SNB-19 CNS): > 100 µM; TGI (CAKI-1 renal): > 100 µM; TGI (IGROV1 ovarian): > 100 µM; TGI (UO-31 renal): > 100 µM; TGI (CCRF-CEM leukemia): > 100 µM; TGI (KM20L2 colon): > 100 µM; TGI (NCI-H226 lung): > 100 µM; TGI (HCT-15 colon): > 100 µM; TGI (RXF-631 renal): > 100 µM; TGI (XF 498 CNS): > 100 µM; TGI (SF-295 CNS): > 100 µM; TGI (SW-620 colon): > 100 µM; TGI (A549 NSCLC): > 100 µM; TGI (NCI-H23 lung): > 100 µM; TGI (DMS 273 small cell lung): > 100 µM; TGI (UACC-257 melanoma): > 100 µM; TGI (EKVX NSCLC): > 100 µM; TGI (A498 renal): > 100 µM; TGI (HT29 colon): > 100 µM; TGI (HOP-62 NSCLC): > 100 µM; TGI (MOLT-4 leukemia): > 100 µM; TGI (OVCAR-3 ovarian): > 100 µM; TGI (MALME-3M melanoma): > 100 µM; TGI (COLO 205 colon): > 100 µM; TGI (SNB-78 CNS): > 100 µM; TGI (SK-OV-3 ovarian): > 100 µM; TGI (SF-539 CNS): > 100 µM; TGI (786-0 renal): > 100 µM; TGI (HCT-116 colon): > 100 µM
